Experimental data from patent US20160074380A1, “Treatment Of Neurodegenerative Diseases With Combination Of Laquinimod And Fingolimod” (TEVA PHARMACEUTICAL INDUSTRIES LTD., priority 2014, published 2016).
Values joined by “and” are separate entries in the source; they are usually repeats but may differ in a detail not shown here. Equal values may be shown once. Marks after values point to notes of the source that are not given here.

What was measured:
[1] = test system: astrocytic and microglial activation and acute axonal damage; conditions: cited from earlier work; for demyelination, astrocytic and microglial activation: Kim, 2011
reactive astrocytes [2] = test: GM-CSF concentration in conditioned media from reactive astrocytes (cytometry); format: cell-based, mice; conditions: LPS+IFNγ
Procedure: (§1) Mice mixed glial cells were cultured as described by McCarthy et al., 1980. Primary mice glial cells were prepared from the cortical of newborn Swiss mice (1 day). Briefly, meninges and blood vessels of the mice cortex were removed and placed in ice-cold medium of L15 containing 2% of PS and 1% of BSA. Tissues were dissociated with 0.25% trypsin-EDTA at 37° C. for 10 min. Cells were then submitted to a supplementary incubation of 15 min at 37° C. in presence of deoxyribonuclease I (final concentration of 0.5 mg/mL). Cells were then pelleted (5 min at 1200 rpm) and trypsinization was stopped by adding DMEM supplemented with 10% FCS, 1 mM of Na/pyruvate (PanBiotech, ref: P04-43100, batch: 3470914) and 2% PS. Cells suspension was mechanically dissociated and filtered through 40 μm diameter nylon meshes (BD Falcon, Ref: 352340). The cells were collected by centrifugation at 1200 rpm/min for 10 min, re-suspended in culture medium and then plated in culture flasks (Dutscher, ref: 690175). Cells were seeded at a density of 1.25×10^5 cells/cm2 and cultured in 5% CO2 at 37° C. Medium was changed three times per week.
(§2) Purification of astrocytes cells was done as described by Kim et al., 2006. After 14 days, the flasks were shaken on a rotary shaker at 200 rpm for 3 h. The resulting cell suspension rich in microglia was removed. Cells remaining in the flasks from which microglia had been harvested correspond to astrocytes at a purity of about 90%. Astrocytes were cultured in DMEM supplemented with 10% FCS, 1 mM of Na/pyruvate and 2% at 5% CO2 and 37° C. in flasks of 25 cm2.
(§3) When reaching confluence, primary astroglial cells were first incubated for 2 hours with Fingolimod (1 nM, 10 nM) or Laquinimod (1 nM, 10 nM, 100 nM, 1 μM, 10 μM) alone or in co-incubation or control medium.
(§4) At the end of 2 hours treatment with test compounds, astrocyte culture was activated with serum-free DMEM containing LPS (100 ng/mL; Sigma, Serotype 026:B6, ref: L2654; batch: 123M4052V) and IFNγ (10 ng/mL; Peprotech; ref: 315-05; batch: 061398 L0513) for 6 hours (Kim and Lee, 2013; Shu et al., 2014; Gresa-Arribas et al., 2012) in absence or presence of test compounds.
(§5) To obtain LPS/INFγ free conditioned media (CM), after 6 hours, cells were washed twice with DMEM and medium was replaced with DMEM supplemented with B27 (2%), L-glutamine (2 mM), PS solution (2%). LCM was collected 24 hrs after. For control, cells were incubated with medium not containing LPS/INFγ. […]

reactive astrocytes [3] = test: TNFα concentration in conditioned media from reactive astrocytes (cytometry); format: cell-based, mice
Procedure: as §1, §2, §3, §4, §5

reactive astrocytes [4] = test: IL-12p70 concentration in conditioned media from reactive astrocytes (cytometry); format: cell-based, mice; conditions: LPS+IFNγ
Procedure: as §1, §2, §3, §4, §5

reactive astrocytes [5] = test: CCL7 release in conditioned media from reactive astrocytes (ELISA); format: cell-based, mice; conditions: LPS+IFNγ
Procedure: as §1, §2, §3, §4, §5

cortical neurons = test: Cortical neuron survival after 72 h with conditioned media from reactive astrocytes; format: cell-based, mice; conditions: conditioned media 72 h; for % cell survival: % of control
Procedure: Mice cortical neurons were cultured as described by Singer et al., 1999. Briefly pregnant female mice of 13 days gestation were killed by cervical dislocation (Mice Swiss; Janvier Lab). The foetuses were removed from the uterus. The cortexes were removed and placed in ice-cold medium of Leibovitz (L15, Panbiotech, ref: P04-27055, batch: 9310614) containing 2% of Penicillin 10.000 U/ml and Streptomycin 10 mg/ml (PS, Panbiotech, ref: P06-07100, batch: 8460514) and 1% of Bovine Serum Albumin (BSA, Panbiotech, Ref: P06-1391100, batch: H140603). Cortexes were dissociated by trypsin-EDTA (Panbiotech, Ref: P10-023100, batch: 3330914) for 20 min at 37° C. The reaction was stopped by the addition of Dulbecco's modified Eagle's Medium (DMEM, Panbiotech, Ref P04-03600, batch: 1300714) containing DNasel grade II (0.1 mg/ml, Panbiotech, ref: P60-37780100, batch: H140508) and 10% of Foetal Calf Serum (FCS, Invitrogen, ref: 10270-098, batch: 4103912K). Cells were then mechanically dissociated by 3 serial passages through a 10 ml pipette. Cells were then centrifuged at 515×g for 10 min at 4° C. The supernatant was discarded and the pellet of cells was re-suspended in a defined culture medium consisting of Neurobasal (Nb, Invitrogen, ref: 21103, batch: 1673148) supplemented with B27 (2%, Invitrogen, ref: 17504, batch: 1672731), L-glutamine (2 mM, Panbiotech, ref: P04-80100, batch: 6620314), 2% of PS solution and 10 ng/ml of Brain-derived neurotrophic factor (BDNF, PanBiotech, Ref: CB-1115002, Batch: 121027). Viable cells were counted in a Neubauer cytometer using the trypan blue exclusion test. The cells were seeded at a density of 30 000 cells/well in 96 well-plates pre-coated with poly-D-lysine (Greiner ref: 655930, batch: E140305F) and were cultured at +37° C. in a humidified air (95%)/CO2 (5%) atmosphere.
as §1, §2, §3
At the end of 2 hours treatment with test compounds, astrocyte culture was activated with serum-free DMEM containing LPS (100 ng/mL; Sigma, Serotype 026:B6, ref: L2654; batch: 123M4052V) and IFNγ (10 ng/mL; Peprotech; ref: 315-05; batch: 061398 L0513) for 6 hours (Kim and Lee, 2013; Shu et al., 2014; Gresa-Arribas et al., 2012) in absence or presence of test compounds. […]

[6] = Mus musculus, Astrocyte, 1 nM, read-out: % inhibition of GM-CSF release
[7] = Mus musculus, Astrocyte, 10 nM, read-out: % inhibition of GM-CSF release
[8] = Mus musculus, Astrocyte, 1 nM, LPS+IFNγ, read-out: % inhibition of TNFα release
[9] = Mus musculus, Astrocyte, 10 nM, LPS+IFNγ, read-out: % inhibition of TNFα release
[10] = Mus musculus, Astrocyte, 1 nM, read-out: % inhibition of IL-12p70 release
[11] = Mus musculus, Astrocyte, 10 nM, read-out: % inhibition of IL-12p70 release

CCCCCCCCc1ccc(CCC(N)(CO)CO)cc1 [Fingolimod]
demyelination, astrocytic and microglial activation [1]: partial response
GM-CSF content (reactive astrocytes [2]; 1 nM): 204.09 pg/mL
GM-CSF content (reactive astrocytes [2]; 10 nM): 147.56 pg/mL
GM-CSF release (reactive astrocytes [2]; 10 nM): 148 pg/mL
inhibition at 0.001 µM (reactive astrocytes [2]; [6]): 16%
inhibition at 0.01 µM (reactive astrocytes [2]; [7]): 39.2%
effect on TNFα release (reactive astrocytes [3]; 1 nM and 10 nM): didn't show any significant effect
TNFa content (reactive astrocytes [3]; 1 nM, LPS+IFNγ): 3170.03 pg/mL
TNFa content (reactive astrocytes [3]; 10 nM, LPS+IFNγ): 3053.66 pg/mL
inhibition at 0.001 µM (reactive astrocytes [3]; [8]): 3.4%
inhibition at 0.01 µM (reactive astrocytes [3]; [9]): 6.9%
IL-12p70 content (reactive astrocytes [4]; 1 nM): 6.15 pg/mL
IL-12p70 content (reactive astrocytes [4]; 10 nM): 4.25 pg/mL
inhibition at 0.001 µM (reactive astrocytes [4]; [10]): 38.1%
inhibition at 0.01 µM (reactive astrocytes [4]; [11]): 57.2%
CCL-7 content (reactive astrocytes [5]; 1 nM): 24.396 pg/mL
inhibition at 0.001 µM (reactive astrocytes [5]; Mus musculus, Astrocyte, 1 nM): 43.7%
inhibition at 0.01 µM (reactive astrocytes [5]; Mus musculus, Astrocyte, 10 nM): 59.9%
% cell survival (cortical neurons; 1 nM): 80%
% cell death (cortical neurons; 1 nM): 20%
% inhibition of cortical neuron cell death (cortical neurons; 1 nM): 41.2%
% cell survival (cortical neurons; 10 nM): 85%
% cell death (cortical neurons; 10 nM): 15%
% inhibition of cortical neuron cell death (cortical neurons; 10 nM): 55.9* %

CCN(C(=O)c1c(O)c2c(Cl)cccc2n(C)c1=O)c1ccccc1 [Laquinimod]
acute axonal damage ([1]; Brück, 2012): reduces it completely
demyelination, astrocytic and microglial activation [1]: partial response
GM-CSF content (reactive astrocytes [2]; 1 nM): 207.71 pg/mL
GM-CSF content (reactive astrocytes [2]; 10 nM): 209.51 pg/mL
GM-CSF content (reactive astrocytes [2]; 100 nM): 179.39 pg/mL
GM-CSF content (reactive astrocytes [2]; 1 μM): 154 pg/mL and 154.26 pg/mL
inhibition at 0.001 µM (reactive astrocytes [2]; [6]): 14.5%
inhibition at 0.01 µM (reactive astrocytes [2]; [7]): 13.7%
inhibition at 0.1 µM (reactive astrocytes [2]; Mus musculus, Astrocyte, 100 nM, read-out: % inhibition of GM-CSF release): 26.1%
inhibition at 1 µM (reactive astrocytes [2]; Mus musculus, Astrocyte, 1 μM, read-out: % inhibition of GM-CSF release): 36.5%
TNFa content (reactive astrocytes [3]; 1 nM, LPS+IFNγ): 3257.64 pg/mL
TNFa content (reactive astrocytes [3]; 10 nM, LPS+IFNγ): 2440.81 pg/mL
TNFa content (reactive astrocytes [3]; 100 nM, LPS+IFNγ): 2464 pg/mL
TNFa content (reactive astrocytes [3]; 1 μM, LPS+IFNγ): 2769 pg/mL and 2769.46 pg/mL
inhibition at 0.001 µM (reactive astrocytes [3]; [8]): 0.7%
inhibition at 0.01 µM (reactive astrocytes [3]; [9]): 25.6%
inhibition at 0.1 µM (reactive astrocytes [3]; Mus musculus, Astrocyte, 100 nM, LPS+IFNγ, read-out: % inhibition of TNFα release): 24.9%
inhibition at 1 µM (reactive astrocytes [3]; Mus musculus, Astrocyte, 1 μM, LPS+IFNγ, read-out: % inhibition of TNFα release): 15.6%
IL-12p70 content (reactive astrocytes [4]; 1 nM): 6.53 pg/mL
IL-12p70 content (reactive astrocytes [4]; 10 nM): 6.29 pg/mL
IL-12p70 content (reactive astrocytes [4]; 100 nM): 3.84 pg/mL
IL-12p70 content (reactive astrocytes [4]; 1 μM): 2.55 pg/mL
inhibition at 0.001 µM (reactive astrocytes [4]; [10]): 34.3%
inhibition at 0.01 µM (reactive astrocytes [4]; [11]): 36.7%
inhibition at 0.1 µM (reactive astrocytes [4]; Mus musculus, Astrocyte, 100 nM, read-out: % inhibition of IL-12p70 release): 61.4%
inhibition at 1 µM (reactive astrocytes [4]; Mus musculus, Astrocyte, 1 μM, read-out: % inhibition of IL-12p70 release): 74.3%
CCL-7 content (reactive astrocytes [5]; 1 nM): 26.447 pg/mL
CCL-7 content (reactive astrocytes [5]; 10 nM): 21.093 pg/mL
inhibition at 0.001 µM (reactive astrocytes [5]; Mus musculus, Astrocyte, 1 nM): 39%
inhibition at 0.01 µM (reactive astrocytes [5]; Mus musculus, Astrocyte, 10 nM): 51.3%
inhibition at 0.1 µM (reactive astrocytes [5]; Mus musculus, Astrocyte, 100 nM): 58.5%
inhibition at 1 µM (reactive astrocytes [5]; Mus musculus, Astrocyte, 1 μM): 62.8%
% cell survival (cortical neurons; 1 nM): 73%
% cell death (cortical neurons; 1 nM): 27%
% inhibition of cortical neuron cell death (cortical neurons; 1 nM): 20.6* %
% cell survival (cortical neurons; 10 nM): 80%
% cell death (cortical neurons; 10 nM): 20%
% inhibition of cortical neuron cell death (cortical neurons; 10 nM): 41.2%
% cell survival (cortical neurons; 100 nM): 83%
% cell death (cortical neurons; 100 nM): 17%
% inhibition of cortical neuron cell death (cortical neurons; 100 nM): 50.0%
% cell survival (cortical neurons; 1 μM): 92%
% cell death (cortical neurons; 1 μM): 8%
% inhibition of cortical neuron cell death (cortical neurons; 1 μM): 76.5%
